One data set addresses MDR1 (Homo sapiens (Human), UniProt P08183). As to the kind of experiment: in vitro. The following applies: MDCK-MDR1.
The nature of data set [1]: Kinetic solubility assay (CLND), pH 6.8. Type of data set: physicochemical. The following applies: aqueous buffer, kinetic from dmso stock; potassium phosphate buffer pH 6.8, 2% DMSO, 24 hours at ambient temperature.
Another data set has as its target IRAK4 (Homo sapiens (Human), UniProt Q9NWZ3). Put plainly: IRAK4 MSD biochemical assay (2-hour 1 mM ATP). The following applies: 0.1 nM IRAK4, 1 mM ATP, 2 hour at room temperature.

Values after ≈ are worked out from the molar mass of the structure shown. Structures can show the parent of a compound that is named as a salt.

Sequence of MDR1 (P08183 whole entry): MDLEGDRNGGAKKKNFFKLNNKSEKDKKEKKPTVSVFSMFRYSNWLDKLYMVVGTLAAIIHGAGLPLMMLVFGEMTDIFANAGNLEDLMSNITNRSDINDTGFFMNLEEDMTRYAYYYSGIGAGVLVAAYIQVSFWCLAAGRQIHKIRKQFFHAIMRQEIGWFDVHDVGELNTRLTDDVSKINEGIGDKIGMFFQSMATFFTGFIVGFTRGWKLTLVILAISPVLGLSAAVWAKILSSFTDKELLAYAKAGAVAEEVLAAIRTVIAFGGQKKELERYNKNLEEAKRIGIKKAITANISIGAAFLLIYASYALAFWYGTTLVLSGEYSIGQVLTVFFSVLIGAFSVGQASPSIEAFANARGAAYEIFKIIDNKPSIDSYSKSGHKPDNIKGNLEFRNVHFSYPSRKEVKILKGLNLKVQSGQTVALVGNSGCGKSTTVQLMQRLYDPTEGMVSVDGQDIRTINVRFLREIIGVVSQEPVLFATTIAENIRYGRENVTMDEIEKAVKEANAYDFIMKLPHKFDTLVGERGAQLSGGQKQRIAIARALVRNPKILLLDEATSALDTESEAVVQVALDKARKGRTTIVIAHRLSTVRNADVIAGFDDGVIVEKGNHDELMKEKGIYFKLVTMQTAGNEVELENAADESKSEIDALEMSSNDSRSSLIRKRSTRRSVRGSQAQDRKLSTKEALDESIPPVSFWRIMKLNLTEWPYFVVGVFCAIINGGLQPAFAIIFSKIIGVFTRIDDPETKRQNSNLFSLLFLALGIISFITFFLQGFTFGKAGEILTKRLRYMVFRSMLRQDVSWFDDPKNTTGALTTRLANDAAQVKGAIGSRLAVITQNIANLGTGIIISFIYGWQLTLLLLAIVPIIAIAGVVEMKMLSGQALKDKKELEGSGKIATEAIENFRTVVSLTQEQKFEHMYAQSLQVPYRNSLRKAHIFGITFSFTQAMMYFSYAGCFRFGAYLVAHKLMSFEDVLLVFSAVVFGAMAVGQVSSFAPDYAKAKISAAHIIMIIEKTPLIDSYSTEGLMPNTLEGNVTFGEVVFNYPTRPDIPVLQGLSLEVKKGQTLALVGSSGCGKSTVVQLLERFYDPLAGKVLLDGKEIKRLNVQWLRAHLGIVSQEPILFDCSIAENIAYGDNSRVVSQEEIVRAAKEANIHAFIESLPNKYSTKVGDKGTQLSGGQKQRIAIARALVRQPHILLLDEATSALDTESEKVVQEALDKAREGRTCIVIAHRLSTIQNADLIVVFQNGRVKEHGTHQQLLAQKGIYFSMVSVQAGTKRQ
Sequence of IRAK4 (Q9NWZ3 whole entry): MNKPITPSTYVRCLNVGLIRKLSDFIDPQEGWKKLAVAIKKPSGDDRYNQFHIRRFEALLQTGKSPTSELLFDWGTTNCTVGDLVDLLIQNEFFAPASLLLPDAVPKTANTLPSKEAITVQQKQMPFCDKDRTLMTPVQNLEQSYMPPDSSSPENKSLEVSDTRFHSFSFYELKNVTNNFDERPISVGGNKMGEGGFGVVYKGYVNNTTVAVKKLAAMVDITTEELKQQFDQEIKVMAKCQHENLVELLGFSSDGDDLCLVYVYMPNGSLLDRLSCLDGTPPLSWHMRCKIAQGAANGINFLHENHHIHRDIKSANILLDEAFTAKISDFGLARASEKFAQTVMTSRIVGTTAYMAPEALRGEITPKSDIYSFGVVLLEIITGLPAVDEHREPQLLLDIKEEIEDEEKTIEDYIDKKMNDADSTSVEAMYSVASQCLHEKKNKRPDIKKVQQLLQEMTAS

`C[C@@H](CF)Oc1cc2nc(C34CCC(C)(C3)OC4)cn2cc1C(=O)Nc1cccn(C2CC2)c1=O` (mixture of isomers) [Example 30, N-(1-cyclopropyl-2-oxo-1,2-dihydropyridin-3-yl)-7-(((S)-1-fluoropropan-2-yl)oxy)-2-(1-methyl-2-oxabicyclo[2.2.1]heptan-4-yl)imidazo[1,2-a]pyridine-6-carboxamide]: the efflux ratio at 120 min, 1 μM at MDR1 was 11.1. The compound further displayed a kinetic solubility at 24 h in data set [1] of 46.5 µg/mL. Besides, at IRAK4, the midpoint of inhibition, the IC50, lay at 0.2 nM.

Consider `CC(C)Oc1cc2nc([C@]34CC[C@](C)(C3)OC4)cn2cc1C(=O)Nc1cccn(C2CC2F)c1=O` (mixture of isomers) [Example 100, N-(1-(2-fluorocyclopropyl)-2-oxo-1,2-dihydropyridin-3-yl)-7-isopropoxy-2-((1R,4S)-1-methyl-2-oxabicyclo[2.2.1]heptan-4-yl)imidazo[1,2-a]pyridine-6-carboxamide], for which the efflux ratio at 120 min, 1 μM at MDR1 stood at 12.6. The same compound had a solubility (kinetic) at 24 h in data set [1] of 27.6 µg/mL. Moreover, half-maximal inhibition at IRAK4 (IC50) required 0.6 nM.

As for `O=C(Nc1cccn(C2CC2F)c1=O)c1cn2cc([C@]34CO[C@](CF)(C3)C4)nc2nc1OC1CCC1` (mixture of isomers) [Example 106, (rac)-Cis-7-cyclobutoxy-N-(1-(2-fluorocyclopropyl)-2-oxo-1,2-dihydropyridin-3-yl)-2-(1-(fluoromethyl)-2-oxabicyclo[2.1.1]hexan-4-yl)imidazo[1,2-a]pyrimidine-6-carboxamide], on MDR1, the efflux ratio at 120 min, 1 μM was 12.8. Further, in data set [1], the kinetic solubility at 24 h was 44.4 µg/mL. Besides, at IRAK4, 0.5 nM corresponded to half-maximal inhibition (IC50).

In the case of `CC12CC(c3cn4cc(C(=O)Nc5cccn([C@@H]6C[C@@H]6F)c5=O)c(OC5CCC5)cc4n3)(CO1)C2` (racemic) [Example 85, (rac)-Cis-7-cyclobutoxy-N-(1-(2-fluorocyclopropyl)-2-oxo-1,2-dihydropyridin-3-yl)-2-(1-methyl-2-oxabicyclo[2.1.1]hexan-4-yl)imidazo[1,2-a]pyridine-6-carboxamide], the efflux ratio at 120 min, 1 μM on MDR1 turned out to be 7.7. This compound yielded a solubility (kinetic) at 24 h in data set [1] of 44.5 µg/mL (≈ 93 µM). The midpoint of inhibition on IRAK4, the IC50, lay at 0.6 nM.

Turning to `O=C(Nc1cccn([C@@H]2C[C@@H]2F)c1=O)c1cn2cc(C34COC(C3)C4)nc2nc1OC1CCC1` (racemic) [Example 86, (rac)-Cis-2-(2-oxabicyclo[2.1.1]hexan-4-yl)-7-cyclobutoxy-N-(1-(2-fluorocyclopropyl)-2-oxo-1,2-dihydropyridin-3-yl)imidazo[1,2-a]pyrimidine-6-carboxamide], the efflux ratio at 120 min, 1 μM at MDR1 was 0.9. The same compound registered a kinetic solubility at 24 h in data set [1] of 44.9 µg/mL (≈ 96.5 µM). In addition, at IRAK4, the IC50 came to 0.8 nM.

With `CC12CC(c3cn4cc(C(=O)Nc5cccn(C6C[C@@H]6F)c5=O)c(OC5CCC5)nc4n3)(CO1)C2` (mixture of isomers) [Example 103, (rac)-Cis-7-cyclobutoxy-N-(1-(2-fluorocyclopropyl)-2-oxo-1,2-dihydropyridin-3-yl)-2-(1-methyl-2-oxabicyclo[2.1.1]hexan-4-yl)imidazo[1,2-a]pyrimidine-6-carboxamide], the efflux ratio at 120 min, 1 μM at MDR1 came out at 12.8. For the same compound, in data set [1], the solubility (kinetic) at 24 h was 58.8 µg/mL (≈ 123 µM). The compound also returned an IC50 at IRAK4 of 0.4 nM.

For the compound `CC12CC(c3cn4cc(C(=O)Nc5cccn([C@@H]6C[C@@H]6F)c5=O)c(OC5CC5)cc4n3)(CO1)C2` (racemic) [Example 105, (rac)-Cis-7-cyclopropoxy-N-(1-(2-fluorocyclopropyl)-2-oxo-1,2-dihydropyridin-3-yl)-2-(1-methyl-2-oxabicyclo[2.1.1]hexan-4-yl)imidazo[1,2-a]pyridine-6-carboxamide], the efflux ratio at 120 min, 1 μM at MDR1 was determined as 15.8. The compound further had a kinetic solubility at 24 h in data set [1] of 38.7 µg/mL (≈ 83.3 µM). On IRAK4, this compound returned a concentration for half-maximal inhibition (IC50) of 0.7 nM.

Turning to `Cc1cnc2c(NC(=O)c3cn4cc([C@@]56CC[C@@](C)(C5)OC6)nc4cc3OC(C)C)cnn2c1` (single isomer, unassigned) [Comparator 3B, reference compound], on MDR1, the efflux ratio at 120 min, 1 μM was determined as 2. Besides, the solubility (kinetic) at 24 h in data set [1] turned out to be 0.7 µg/mL (≈ 1.52 µM). In addition, the IC50 at IRAK4 was determined as 0.1 nM.

Consider `CC(C)Oc1nc2nc([C@@]34CC[C@@](C)(C3)OC4)cn2cc1C(=O)Nc1ccn(C)n1` (single isomer, unassigned) [Comparator 4C, reference compound], for which the efflux ratio at 120 min, 1 μM at MDR1 worked out at 4.6. The compound further yielded a kinetic solubility at 24 h in data set [1] of 51.3 µg/mL (≈ 125 µM). The compound further showed a half-inhibitory concentration (IC50) against IRAK4 of 2.5 nM.

Turning to `CC[C@@H](C)Oc1cc2nc(C34COC(CF)(C3)C4)cn2cc1C(=O)Nc1cccn(C2CC2)c1=O` (single isomer, unassigned) [Example 14], the efflux ratio at 120 min, 1 μM at MDR1 worked out at 4.8. In data set [1], this compound returned a kinetic solubility at 24 h of 75.7 µg/mL (≈ 158 µM). Also, the IC50 on IRAK4 was 1.3 nM.

For `C[C@@]12CC[C@@](c3cn4cc(C(=O)Nc5cccn(C6CC6)c5=O)c(OC5CCC5)nc4n3)(CO1)C2` (single isomer, unassigned) [Example 16], the efflux ratio at 120 min, 1 μM at MDR1 was 2.8. In data set [1], this compound displayed a kinetic solubility at 24 h of 5.2 µg/mL (≈ 10.9 µM). At IRAK4, the IC50 came to 0.3 nM.

Consider `C[C@]12CC[C@](c3cn4cc(C(=O)Nc5cccn(C6CC6)c5=O)c(OC5CCC5)nc4n3)(CO1)C2` (single isomer, unassigned) [Example 17], for which the efflux ratio at 120 min, 1 μM on MDR1 came to 3.9. The kinetic solubility at 24 h in data set [1] came to 8.5 µg/mL (≈ 17.9 µM). It took 0.5 nM to reach half-maximal inhibition against IRAK4 (IC50).

In the case of `CC[C@@H](C)Oc1cc2nc([C@@]34CC[C@@](C)(C3)OC4)cn2cc1C(=O)Nc1cccn(C2CC2)c1=O` (single isomer, unassigned) [Example 21], on MDR1, the efflux ratio at 120 min, 1 μM was 3.2. Further, the kinetic solubility at 24 h in data set [1] amounted to 61.3 µg/mL (≈ 129 µM). It took 0.9 nM to reach half-maximal inhibition against IRAK4 (IC50).

Consider `CC[C@H](C)Oc1cc2nc([C@@]34CC[C@@](C)(C3)OC4)cn2cc1C(=O)Nc1cccn(C2CC2)c1=O` (single isomer, unassigned) [Example 22], for which the efflux ratio at 120 min, 1 μM on MDR1 is 4.3. The compound further registered a kinetic solubility at 24 h in data set [1] of 69 µg/mL (≈ 145 µM). This compound showed an IC50 against IRAK4 of 0.3 nM.

For `C[C@]12CC[C@](c3cn4cc(C(=O)Nc5cccn(C6CC6)c5=O)c(OC5CCC5)cc4n3)(CO1)C2` (single isomer, unassigned) [Example 26], the efflux ratio at 120 min, 1 μM at MDR1 was 4.1. In data set [1], the kinetic solubility at 24 h came out at 65.3 µg/mL (≈ 138 µM). At IRAK4, this compound showed an IC50 of 0.7 nM.

As to `CC(C)Oc1cc2nc([C@@]34CC[C@@H](C3)OC4)cn2cc1C(=O)Nc1cccn(C2CC2)c1=O` (single isomer, unassigned) [Example 39], the efflux ratio at 120 min, 1 μM at MDR1 was 6.8. In data set [1], this compound registered a kinetic solubility at 24 h of 68.9 µg/mL (≈ 154 µM). At IRAK4, it took 0.2 nM to reach half-maximal inhibition (IC50).

For `CC(C)Oc1cc2nc([C@]34CC[C@H](C3)OC4)cn2cc1C(=O)Nc1cccn(C2CC2)c1=O` (single isomer, unassigned) [Example 40], at MDR1, the efflux ratio at 120 min, 1 μM amounted to 7.5. In addition, the solubility (kinetic) at 24 h in data set [1] stood at 70.2 µg/mL (≈ 157 µM). Also, it took 0.4 nM to reach half-maximal inhibition at IRAK4 (IC50).

Consider `CC[C@@H](C)Oc1nc2nc(C34COC(C)(C3)C4)cn2cc1C(=O)Nc1cccn([C@H]2C[C@H]2F)c1=O` (single isomer, unassigned) [Example 58], for which the efflux ratio at 120 min, 1 μM at MDR1 is 9. In addition, in data set [1], the solubility (kinetic) at 24 h amounted to 72.1 µg/mL (≈ 150 µM). Also, 0.4 nM corresponded to half-maximal inhibition against IRAK4 (IC50).

In the case of `CC[C@H](C)Oc1nc2nc(C34COC(C)(C3)C4)cn2cc1C(=O)Nc1cccn([C@H]2C[C@H]2F)c1=O` (single isomer, unassigned) [Example 60], the efflux ratio at 120 min, 1 μM at MDR1 amounted to 9. The kinetic solubility at 24 h in data set [1] amounted to 55.5 µg/mL (≈ 115 µM). In addition, it took 0.2 nM to reach half-maximal inhibition on IRAK4 (IC50).

Take `CC[C@H](C)Oc1nc2nc(C34COC(C)(C3)C4)cn2cc1C(=O)Nc1cccn(C2CC2)c1=O` (single isomer, unassigned) [Example 64]: the efflux ratio at 120 min, 1 μM at MDR1 was determined as 5. This compound showed a solubility (kinetic) at 24 h in data set [1] of 49.6 µg/mL (≈ 107 µM). Further, at IRAK4, 0.5 nM corresponded to half-maximal inhibition (IC50).

Take `CC(C)Oc1c(C(=O)Nc2cccn(C3CC3)c2=O)cn2cc([C@]34CC[C@](C)(C3)OC4)nc2c1F` (single isomer, unassigned) [Example 68]: the efflux ratio at 120 min, 1 μM on MDR1 came to 2.2. In data set [1], this compound registered a solubility (kinetic) at 24 h of 53.6 µg/mL (≈ 112 µM). Also, the IC50 against IRAK4 is 4.3 nM.

As for `CC(C)Oc1cc2nc([C@@H]3COCCO3)cn2cc1C(=O)Nc1cccn(C2CC2)c1=O` (single isomer, unassigned) [Example 69], at MDR1, the efflux ratio at 120 min, 1 μM stood at 4.7. For the same compound, the kinetic solubility at 24 h in data set [1] is 6.1 µg/mL (≈ 13.9 µM). Besides, the IC50 on IRAK4 came to 0.3 nM.

With `CC(C)Oc1cc2nc([C@H]3COCCO3)cn2cc1C(=O)Nc1cccn(C2CC2)c1=O` (single isomer, unassigned) [Example 70], the efflux ratio at 120 min, 1 μM at MDR1 stood at 3.9. In data set [1], this compound registered a solubility (kinetic) at 24 h of 9.9 µg/mL (≈ 22.6 µM). On IRAK4, this compound returned an IC50 of 1.2 nM.

As to `CC(C)Oc1cc2nc([C@]34CC[C@](C)(C3)OC4)cn2cc1C(=O)Nc1cccn([C@@H]2C[C@@H]2C)c1=O` [Example 181, 7-isopropoxy-2-((1R,4S)-1-methyl-2-oxabicyclo[2.2.1]heptan-4-yl)-N-(1-((1R,2S)-2-methylcyclopropyl)-2-oxo-1,2-dihydropyridin-3-yl)imidazo[1,2-a]pyridine-6-carboxamide trifluoroacetate], the efflux ratio at 120 min, 1 μM at MDR1 was 5.3. Moreover, the IC50 against IRAK4 turned out to be 24.9 nM.

On to `CC(C)Oc1cc2nc([C@@]34CC[C@@](C)(C3)OC4)cn2cc1C(=O)Nc1cccn([C@@H]2C[C@@H]2C)c1=O` [Example 183, 7-isopropoxy-2-((1S,4R)-1-methyl-2-oxabicyclo[2.2.1]heptan-4-yl)-N-(1-((1R,2S)-2-methylcyclopropyl)-2-oxo-1,2-dihydropyridin-3-yl)imidazo[1,2-a]pyridine-6-carboxamide trifluoroacetate], for which the efflux ratio at 120 min, 1 μM on MDR1 was found to be 2.9. Further, half-maximal inhibition at IRAK4 (IC50) required 15.4 nM.

Consider `C[C@H]1C[C@H]1n1cccc(NC(=O)c2cn3cc(C45COC(C)(C4)C5)nc3nc2OC2CCC2)c1=O` [Example 189, 7-cyclobutoxy-2-(1-methyl-2-oxabicyclo[2.1.1]hexan-4-yl)-N-(1-((1R,2S)-2-methylcyclopropyl)-2-oxo-1,2-dihydropyridin-3-yl)imidazo[1,2-a]pyrimidine-6-carboxamide trifluoroacetate], for which, at MDR1, the efflux ratio at 120 min, 1 μM turned out to be 3.4. Moreover, the IC50 against IRAK4 amounted to 34.6 nM.

(Values after US20240116922A1, “IMIDAZO[1,2-A]PYRIDINE DERIVATIVES AS IRAK4 INHIBITORS AND THEIR USE IN THE TREATMENT OF DISEASE” (BIOGEN MA INC., priority 2020, published 2024).)
